According to the NIST ThermoML archive (doi:10.1021/je034290l):

Key:
[1] = excess molar enthalpy (molar enthalpy of mixing); xn = mol fraction of the nth substance listed; details: 101.32 kPa, Liquid, Calvet calorimetry
[2] = xn = mol fraction of the nth substance listed; details: 101.32 kPa, Liquid

COC(C)=O [methyl ethanoate] + CC(C)(C)O
Details	excess molar enthalpy [kcal/mol]	excess molar volume [m3/mol]
[1], 299.15 K, x1 = 0.0671	0.126	–
[1], 299.15 K, x1 = 0.1369	0.238	–
[1], 299.15 K, x1 = 0.2113	0.341	–
[1], 299.15 K, x1 = 0.2812	0.417	–
[1], 299.15 K, x1 = 0.3492	0.472	–
[1], 299.15 K, x1 = 0.4106	0.504	–
[1], 299.15 K, x1 = 0.4675	0.519	–
[1], 299.15 K, x1 = 0.4928	0.522	–
[1], 299.15 K, x1 = 0.5304	0.524	–
[1], 299.15 K, x1 = 0.5753	0.517	–
[1], 299.15 K, x1 = 0.6226	0.5	–
[1], 299.15 K, x1 = 0.6741	0.47	–
[1], 299.15 K, x1 = 0.7293	0.427	–
[1], 299.15 K, x1 = 0.7866	0.368	–
[1], 299.15 K, x1 = 0.8439	0.292	–
[1], 299.15 K, x1 = 0.9019	0.201	–
[1], 299.15 K, x1 = 0.9551	0.107	–
[1], 318.15 K, x1 = 0.071	0.113	–
[1], 318.15 K, x1 = 0.1469	0.216	–
[1], 318.15 K, x1 = 0.2304	0.311	–
[1], 318.15 K, x1 = 0.3022	0.382	–
[1], 318.15 K, x1 = 0.3713	0.434	–
[1], 318.15 K, x1 = 0.4322	0.471	–
[1], 318.15 K, x1 = 0.4898	0.49	–
[1], 318.15 K, x1 = 0.5407	0.492	–
[1], 318.15 K, x1 = 0.5865	0.485	–
[1], 318.15 K, x1 = 0.6105	0.475	–
[1], 318.15 K, x1 = 0.6585	0.451	–
[1], 318.15 K, x1 = 0.711	0.414	–
[1], 318.15 K, x1 = 0.7628	0.367	–
[1], 318.15 K, x1 = 0.817	0.308	–
[1], 318.15 K, x1 = 0.8636	0.242	–
[1], 318.15 K, x1 = 0.9085	0.174	–
[1], 318.15 K, x1 = 0.9567	0.0889	–
[2], 303.15 K, x1 = 0.0451	–	1.65e-07
[2], 303.15 K, x1 = 0.0901	–	3.35e-07
[2], 303.15 K, x1 = 0.1537	–	5.06e-07
[2], 303.15 K, x1 = 0.1973	–	6.07e-07
[2], 303.15 K, x1 = 0.2481	–	7.02e-07
[2], 303.15 K, x1 = 0.2631	–	7.32e-07
[2], 303.15 K, x1 = 0.3042	–	8.09e-07
[2], 303.15 K, x1 = 0.3448	–	8.49e-07
[2], 303.15 K, x1 = 0.3957	–	8.87e-07
[2], 303.15 K, x1 = 0.4411	–	9.04e-07
[2], 303.15 K, x1 = 0.4445	–	8.99e-07
[2], 303.15 K, x1 = 0.4964	–	8.92e-07
[2], 303.15 K, x1 = 0.5515	–	8.74e-07
[2], 303.15 K, x1 = 0.5677	–	8.68e-07
[2], 303.15 K, x1 = 0.5954	–	8.5e-07
[2], 303.15 K, x1 = 0.6467	–	7.94e-07
[2], 303.15 K, x1 = 0.6956	–	7.42e-07
[2], 303.15 K, x1 = 0.7432	–	6.59e-07
[2], 303.15 K, x1 = 0.8016	–	5.54e-07
[2], 303.15 K, x1 = 0.8477	–	4.63e-07
[2], 303.15 K, x1 = 0.9067	–	3.28e-07
[2], 303.15 K, x1 = 0.9465	–	2.17e-07
[2], 318.15 K, x1 = 0.102	–	3.93e-07
[2], 318.15 K, x1 = 0.165	–	5.61e-07
[2], 318.15 K, x1 = 0.2168	–	6.84e-07
[2], 318.15 K, x1 = 0.2804	–	7.71e-07
[2], 318.15 K, x1 = 0.349	–	8.76e-07
[2], 318.15 K, x1 = 0.4031	–	9.16e-07
[2], 318.15 K, x1 = 0.4596	–	9.41e-07
[2], 318.15 K, x1 = 0.5227	–	9.15e-07
[2], 318.15 K, x1 = 0.5784	–	8.91e-07
[2], 318.15 K, x1 = 0.6398	–	8.5e-07
[2], 318.15 K, x1 = 0.6786	–	8.06e-07
[2], 318.15 K, x1 = 0.7422	–	7.18e-07
[2], 318.15 K, x1 = 0.7969	–	5.7e-07
[2], 318.15 K, x1 = 0.8256	–	5.31e-07
[2], 318.15 K, x1 = 0.9077	–	3.01e-07
[2], 318.15 K, x1 = 0.9496	–	1.86e-07
